In data set [1] the test system is male ddY mice. In words: Rotarod performance test-2. It is filed as in vivo. The settings on record: for Time of Fall: mice, oral at the ED50 dose of the 6 Hz model, 25 minutes after administration; for Ratio Relative to the Control Compound: time of fall relative to control compound. As to the method: Rotarod Performance Test-2
(§1) A rotarod (MK-660C from Muromachi Kikai Co., Ltd.) was used for the measurement. The rod (bar) was controlled to be gradually accelerated from its stationary state to a speed of 40 rotations/minute after 180 seconds. As the animals, 5 or 6-week-old male ddY mice (Japan SLC, Inc.) were used. On the day on which the test was performed, the mice were trained under the above-described measurement conditions, and mice that were able to ride on the rod for 1 minute or longer with good reproducibility were selected and subjected to the test.
As the control, only the medium was orally administered. After a lapse of 25 minutes from the oral administration of each compound, the mice were subjected to the rotarod performance test. Five or six mice were used for each compound group. For each compound, the time until the mice fell from the rotarod was measured.
In general terms: In the rotarod test animals must keep their balance on a rotating rod.

In data set [2] the test system is male ddY mice. As to the kind of experiment: Murine 6 Hz convulsion models (6 Hz, 44 mA corneal stimulation). It is filed as in vivo. The settings on record: for ED50: Mus musculus, 25 min; for Therapeutic Index: TD50/ED50 (rotarod test-1 / 6 Hz convulsion model). As to the method: (§2) With regard to the AMPA receptor inhibitory action of the compounds, AMPA-induced intraneuronal calcium entry-suppressing action was examined using a primary culture system of embryonic rat cerebral cortex neurons. […] AMPA inhibitor-induced central nervous system depressant action such as loss of coordination was evaluated using a rotarod performance test.
Immediately after the rotarod performance test-1 was completed, the cornea was stimulated by passing an electrical current (6 Hz, 44 mA, 0.2-millisecond pulse, for 3 seconds) from a copper electrode moistened with physiological saline, and the presence or absence of the development of a seizure was observed. The seizure was determined by the development of akinesia, jaw and forelimb clonus, whisker tremors, and Straub tail.
Further, for the purpose of evaluating the safety margin of each of the compounds of the present invention, the therapeutic index (TD50/ED50) was calculated by comparing the seizure inhibitory action (ED50) in the 6 Hz convulsion models and the neurotoxic action (TD50) in the rotarod performance test-1.

Data set [3] deals with male ddY mice. As to the kind of experiment: Rotarod performance test-1. The settings on record: oral, 25 minutes after administration, dose at which time of fall is reduced to 50% of medium control. It is filed as in vivo. As to the method:
as §2
Rotarod Performance Test-1
as §1
Each of the compounds was dissolved in a medium (a solution prepared by adding DMSO to a 0.5% methylcellulose solution to a final concentration of 10%. As required, 0.5 to 5% of 1 mol/L hydrochloric acid and 5% Cremophor™ were added), and then orally administered to the mice in optimum four doses between 0.5 to 10 mg/kg. As the control, only the medium was orally administered. After a lapse of 25 minutes from the oral administration of each compound, the mice were subjected to the rotarod performance test. Five to twenty-five mice were used for each compound group.

The subject of data set [4] is AMPA receptor. In words: AMPA-induced intraneuronal calcium entry-suppressing action (primary culture of embryonic rat cerebral cortex neurons, Fura 2-AM). It is filed as cell-based. The settings on record: AMPA stimulation, intracellular calcium increase, read-out: IC50 for AMPA inhibition. The text has this: The present inventors conducted the following tests, in order to confirm the effects of the compounds of the present invention. With regard to the AMPA receptor inhibitory action of the compounds, AMPA-induced intraneuronal calcium entry-suppressing action was examined using a primary culture system of embryonic rat cerebral cortex neurons. With regard to the anticonvulsant action of the compounds, 6 Hz (44 mA) stimulation-induced convulsions known as a treatment-resistant convulsion model were used. AMPA inhibitor-induced central nervous system depressant action such as loss of coordination was evaluated using a rotarod performance test.
AMPA-Induced Intraneuronal Calcium Entry-Suppressing Action
<Culture conditions> Whole fetuses were removed from the uteri of Wistar rats at embryonic day 18 (Charles River Japan) anesthetized with isoflurane. Whole brains were removed from the whole fetuses, and the cerebral cortex was separated in Leibovitz's L-15 medium or Hanks balanced salt solution containing 20% fetal bovine serum. The resulting material was treated with trypsin/DNase solution at 37° C. for 45 to 60 minutes. After the serum was added to stop the trypsin reaction, the resulting material was centrifuged at 1200 to 1500 rpm for 3 to 5 minutes. After the supernatant was removed, Neurobasal medium (containing 2% B-27 supplement and the like; hereinafter “Neurobasal medium”) was added, and the cells were uniformly dispersed by gently pipetting. The cell suspension was slightly stirred, and then filtered through a nylon mesh filter. Viable cells were counted using a hemocytometer, and diluted with Neurobasal medium to 8 to 10×10^5 cells/mL. The cells were seeded into 96 well plates at 100 μL per well and cultured in a CO2 incubator (5% CO2, 37° C.). The medium was replaced after 24 hours, and neurons cultured for 7 to 21 days were used.
On the day of the assay, the medium was removed and replaced with a calcium measurement solution containing 5 to 10 μmol/L of Fura 2-AM (140 mmol/L sodium chloride, 5 mmol/L potassium chloride, 2 mmol/L magnesium chloride, 3 mmol/L calcium chloride, 24 mmol/L D(+)-glucose, 10 mmol/L HEPES, 1 μmol/L MK-801, pH 7.4), and the cells were treated in a CO2 incubator (5% CO2, 37° C.) for 1 to 2 hours. The calcium measurement solution containing the Fura-2 AM solution was subsequently removed, and the neurons in each well were washed twice with the calcium measurement solution for each well, and then 50 μL of the calcium measurement solution was added to each well. Subsequently, 50 μL of a test compound or medium prepared at a concentration 3-fold higher than the final concentration was added, and the cells were pre-treated for about 15 minutes. The plates were subsequently placed on the Fluorescence Drug Screening System 6000 (Hamamatsu Photonics K.K.). The cells were stimulated by adding to each well 50 μL of an AMPA stimulating solution prepared to 3.3 μmol/L with the calcium measurement solution. Changes in calcium concentration were measured as the changes in fluorescence intensity at excitation wavelengths of 340 nm and 380 nm (measurement wavelength: 540 nm). The rate of change of the intracellular calcium concentration was calculated according to the following equation: Rate of increase of the intracellular calcium concentration (% control)=(Tpost−Tpre)/(Cpost−Cpre)×100
wherein Tpost: the proportion of fluorescence of sample wells after stimulation; Tpro: the proportion of fluorescence of sample wells before stimulation; Cpost: the proportion of fluorescence of control wells after stimulation; and Cpre: the proportion of fluorescence of control wells before stimulation.
The IC50 value of the test compound for AMPA inhibition was determined from the rates of increase of the intracellular calcium concentration at various concentrations.
(In general: Calcium assays in cells follow changes in intracellular calcium, usually with a dye or a luminescent sensor.)

Where [5] appears, read: mice, 6 Hz 44 mA stimulation-induced seizure, oral, after rotarod test-1 (25 minutes after administration), read-out: ED50.

Each structure is given as a SMILES string. Like-named read-outs stand apart in the source and are kept apart here.

With `COc1cncc(-n2c3c(cc(-c4cccc(F)c4C#N)c2=O)-c2ncccc2OC3)c1` [Example 2, 2-fluoro-6-(7-(5-methoxypyridin-3-yl)-8-oxo-7,8-dihydro-6H-pyrano[3,2-b:5,4-b′]dipyridin-9-yl)benzonitrile], in data set [1] (Table 3), the “Time of Fall” value came out at 148.0 s and the “Ratio Relative to the Control Compound” value is listed as 12.1. For the same compound, it took a dose of 1.91 mg/kg to reach the 50% effect level in data set [2] (po) (ED50). Moreover, the “Therapeutic Index” value in data set [2] (mice) came out at 2.36. In addition, the TD50 in data set [3] is listed as 4.50 mg/kg, p.o. For the same compound, the IC50 (commonly the concentration that inhibits the measured activity by half) in data set [4] was found to be 16 nM.
For the compound `Cc1ccc(-n2c3c(cc(-c4cccc(F)c4Cl)c2=O)-c2ncccc2OC3)cn1` [Example 4, 9-(2-chloro-3-fluorophenyl)-7-(6-methylpyridin-3-yl)-6H-pyrano[3,2-b:5,4-b′]dipyridin-8(7H)-one], in data set [1] (Table 3), the “Time of Fall” value turned out to be 73.2 s and the “Ratio Relative to the Control Compound” value came out at 6.0. Also, the ED50 (usually the dose that gives a 50% effect, or the effect in half of the subjects) in data set [2] (po) came out at 2.33 mg/kg. Besides, the “Therapeutic Index” value in data set [2] (mice) stood at 1.67. Further, in data set [3], the TD50 is given as 3.90 mg/kg, p.o. The IC50 in data set [4] is 28.3 nM.
As to `N#Cc1ncccc1-c1cc2c(n(-c3ccccc3)c1=O)COc1cc(F)cnc1-2` [Example 13, 3-(3-fluoro-8-oxo-7-phenyl-7,8-dihydro-6H-pyrano[3,2-b:5,4-b′]dipyridin-9-yl)picolinonitrile], in data set [1] (Table 3), the “Time of Fall” value was 84.8 s and the “Ratio Relative to the Control Compound” value stood at 7.0. The ED50 in data set [2] (po) stood at 2.25 mg/kg. Moreover, the “Therapeutic Index” value in data set [2] (mice) is reported as 1.73. For the same compound, the TD50 in data set [3] is on record as 3.89 mg/kg, p.o. The IC50 in data set [4] turned out to be 67.5 nM.
Take `N#Cc1ncccc1-c1cc2c(n(-c3ccsc3)c1=O)COc1cccnc1-2` [Example 7, 3-(8-oxo-7-(thiophen-3-yl)-7,8-dihydro-6H-pyrano[3,2-b:5,4-b′]dipyridin-9-yl)picolinonitrile]: in data set [1] (Table 3), the “Time of Fall” value is 71.7 s and the “Ratio Relative to the Control Compound” value is 5.9. For the same compound, in data set [2] (po), the ED50 worked out at 0.97 mg/kg. In addition, the “Therapeutic Index” value in data set [2] (mice) worked out at 1.75. For the same compound, in data set [3], the TD50 is on record as 1.70 mg/kg, p.o. In data set [4], the IC50 was determined as 15.5 nM.
With `O=c1c(-c2ccccc2Cl)cc2c(n1-c1cccnc1)COc1cccnc1-2` [Example 1, 9-(2-chlorophenyl)-7-(pyridin-3-yl)-6H-pyrano[3,2-b:5,4-b′]dipyridin-8(7H)-one], in data set [1] (Table 3), the “Time of Fall” value was determined as 56.3 s and the “Ratio Relative to the Control Compound” value is listed as 4.6. This compound gave an ED50 in data set [2] (po) of 2.08 mg/kg. Also, in data set [2] (mice), the “Therapeutic Index” value stood at 1.49. Moreover, the TD50 in data set [3] is 3.09 mg/kg, p.o. The IC50 in data set [4] worked out at 33.5 nM.
Regarding `Cc1ccc(-n2c3c(cc(-c4cccc(F)c4C#N)c2=O)-c2ncccc2OC3)cn1` [Example 3, 2-fluoro-6-(7-(6-methylpyridin-3-yl)-8-oxo-7,8-dihydro-6H-pyrano[3,2-b:5,4-b′]dipyridin-9-yl)benzonitrile], in data set [1] (Table 3), the “Time of Fall” value turned out to be 124.7 s and the “Ratio Relative to the Control Compound” value stood at 10.2. Moreover, the ED50 in data set [2] (po) is 1.21 mg/kg. Moreover, the “Therapeutic Index” value in data set [2] (mice) is on record as 2.04. In data set [3], the TD50 is listed as 2.47 mg/kg, p.o. In addition, the IC50 in data set [4] was determined as 10.4 nM.
Regarding `N#Cc1c(F)cccc1-c1cc2c(n(-c3cccnc3)c1=O)COc1cc(F)cnc1-2` [Example 14, 2-fluoro-6-(3-fluoro-8-oxo-7-(pyridin-3-yl)-7,8-dihydro-6H-pyrano[3,2-b:5,4-b′]dipyridin-9-yl)benzonitrile], in data set [1] (Table 4), the “Time of Fall” value is 139.2 s and the “Ratio Relative to the Control Compound” value is given as 9.7. This compound also had an ED50 in data set [2] (po) of 2.09 mg/kg. Further, in data set [2] (mice), the “Therapeutic Index” value is reported as 2.27. For the same compound, the TD50 in data set [3] was 4.76 mg/kg, p.o. In addition, the IC50 in data set [4] came to 19.4 nM.
For the compound `N#Cc1nccnc1-c1cc2c(n(-c3ccsc3)c1=O)COc1cccnc1-2` [Example 8, 3-(8-oxo-7-(thiophen-3-yl)-7,8-dihydro-6H-pyrano[3,2-b:5,4-b′]dipyridin-9-yl)pyrazine-2-carbonitrile], in data set [1] (Table 3), the “Time of Fall” value was 65.8 s and the “Ratio Relative to the Control Compound” value worked out at 5.4. Besides, the ED50 in data set [2] (setting [5]) was found to be 4.85 mg/kg. The “Therapeutic Index” value in data set [2] (mice) is recorded as over 1.65. Moreover, the TD50 in data set [3] is reported as >8 mg/kg, p.o. For the same compound, the IC50 in data set [4] was found to be 70.1 nM.
As to `N#Cc1c(F)cccc1-c1cc2c(n(-c3cncc(Cl)c3)c1=O)COc1cccnc1-2` [Example 20, 2-(7-(5-chloropyridin-3-yl)-8-oxo-7,8-dihydro-6H-pyrano[3,2-b:5,4-b′]dipyridin-9-yl)-6-fluorobenzonitrile], in data set [1] (Table 4), the “Time of Fall” value turned out to be 71.3 s and the “Ratio Relative to the Control Compound” value is on record as 5.0. The ED50 in data set [2] (po) worked out at 2.47 mg/kg. In data set [2] (mice), the “Therapeutic Index” value came to 1.91. Moreover, the TD50 in data set [3] is listed as 4.74 mg/kg, p.o. Besides, in data set [4], the IC50 was determined as 8.26 nM.
Regarding `Cc1c(F)cccc1-c1cc2c(n(-c3cccnc3)c1=O)COc1cccnc1-2` [Example 22, 9-(3-fluoro-2-methylphenyl)-7-(pyridin-3-yl)-6H-pyrano[3,2-b:5,4-b′]dipyridin-8(7H)-one], in data set [1] (Table 4), the “Time of Fall” value amounted to 102.8 s and the “Ratio Relative to the Control Compound” value was 7.2. Further, the ED50 in data set [2] (setting [5]) came to 3.23 mg/kg. Also, the “Therapeutic Index” value in data set [2] (mice) came to 1.91. Also, the TD50 in data set [3] is reported as 6.19 mg/kg, p.o. Further, the IC50 in data set [4] came out at 53.3 nM.
As to `Cc1ncc(-n2c3c(cc(-c4cccc(F)c4C#N)c2=O)-c2ncccc2OC3)cn1` [Example 21, 2-fluoro-6-(7-(2-methylpyrimidin-5-yl)-8-oxo-7,8-dihydro-6H-pyrano[3,2-b:5,4-b′]dipyridin-9-yl)benzonitrile], in data set [1] (Table 4), the “Time of Fall” value turned out to be 118.7 s and the “Ratio Relative to the Control Compound” value was determined as 8.3. Besides, the ED50 in data set [2] (setting [5]) came out at 2.5 mg/kg. The “Therapeutic Index” value in data set [2] (mice) was determined as 2.12. Moreover, the TD50 in data set [3] is 5.30 mg/kg, p.o. The IC50 in data set [4] came to 44.3 nM.

These data come from patent US9738656B2, “Pyranodipyridine compound” (Eisai R&D Management Co., Ltd., priority 2015, dated 2017).
